One test deals with PI3K alpha (Homo sapiens, UniProt P42336). Nature of the test: PI3K-α assay (ADP-Glo enzyme inhibition). In kind it is biochemical. To be noted: at 500 nm. How it is done: Compounds were evaluated for their ability to inhibit class I PI3-kinase enzyme alpha as given below. PI3K-α Assay: PI3K alpha (diluted in 12.5 mM Glycine-NaOH (pH 8.5), 50 mM KCl, 2.5 mM MgCl2, 1 mM DTT, 0.05% CHAPS) is assayed in total volume of 20 ul containing 12.5 mM glycine-NaOH (pH 8.5), 50 mM KCl, 2.5 mM MgCl2, 1 mM DTT, 0.05% CHAPS, 0.01 mM ATP and 0.05 mM diC8 PIP2. The enzyme is assayed for 80 min after which 20 ul of ADP-Glo reagent is added. After a further incubation of 40 min, 40 ul of Kinase Detection Buffer is added. The assays are incubated for 40 min and then read on PerkinElmer Envision for 1 sec/well.

For a further test, the system named is MDA-MB231 Cell line. Nature of the test: MTT cell proliferation assay, MDA-MB231. To be noted: Homo sapiens, MDA-MB-231, 120 h, 5 days. In kind it is cell-based. How it is done:
(§1) Human breast cancer cell lines MDAMB231, MFC-7 and human prostate carcinoma cell line PC-3 were obtained from European Collection of Cell Cultures (ECACC). Cells were grown in […] medium supplemented with 10% fetal bovine serum (FBS), penicillin (100 units/ml), streptomycin (100 μg/ml), L-glutamine (0.3 mg/ml), sodium pyruvate ([…]), and NaHCO3 (2 mg/ml). Cells were grown in CO2 incubator (Thermocon Electron Corporation, USA) at 37° C. in an atmosphere of 95% air and 5% CO2 with 98% humidity. Different molecules were dissolved in DMSO and were delivered to cell cultures in complete medium.
(§2) MTT assay was done to determine the viability of the cells and was done as described previously (Kumar et al, 2013). Briefly, 6×10^3 were seeded in 96 well plates and were treated with different concentrations of different molecules for 5 days. 20 μl of MTT dye (2.5 mg/ml) was added 3 h before the termination of the experiment. Formazen crystals were dissolved in 150 μl of DMSO and OD was measured at 570 nm.

The subject of the next test is MCF-7 Cell line. The experiment in a line: MTT cell proliferation assay, MCF-7. In kind it is cell-based. To be noted: Homo sapiens, MCF7, 120 h, 5 days. As to the method: as §1, §2
In another test the test system is PC-3 Cell line. The experiment in a line: MTT cell proliferation assay, PC-3. In kind it is cell-based. To be noted: Homo sapiens, PC-3, 120 h, 5 days. As to the method:
as §1, §2

[1] abbreviates: read-out: In vitro PI3K α % of inhibition.
The mark [2] stands for this setting: read-out: inhibition against PI3K alpha.

Where two headings read alike, the source gives them in different places. Bounds are passed on as bounds.

Sequence of PI3K alpha (P42336 whole entry, species assumed): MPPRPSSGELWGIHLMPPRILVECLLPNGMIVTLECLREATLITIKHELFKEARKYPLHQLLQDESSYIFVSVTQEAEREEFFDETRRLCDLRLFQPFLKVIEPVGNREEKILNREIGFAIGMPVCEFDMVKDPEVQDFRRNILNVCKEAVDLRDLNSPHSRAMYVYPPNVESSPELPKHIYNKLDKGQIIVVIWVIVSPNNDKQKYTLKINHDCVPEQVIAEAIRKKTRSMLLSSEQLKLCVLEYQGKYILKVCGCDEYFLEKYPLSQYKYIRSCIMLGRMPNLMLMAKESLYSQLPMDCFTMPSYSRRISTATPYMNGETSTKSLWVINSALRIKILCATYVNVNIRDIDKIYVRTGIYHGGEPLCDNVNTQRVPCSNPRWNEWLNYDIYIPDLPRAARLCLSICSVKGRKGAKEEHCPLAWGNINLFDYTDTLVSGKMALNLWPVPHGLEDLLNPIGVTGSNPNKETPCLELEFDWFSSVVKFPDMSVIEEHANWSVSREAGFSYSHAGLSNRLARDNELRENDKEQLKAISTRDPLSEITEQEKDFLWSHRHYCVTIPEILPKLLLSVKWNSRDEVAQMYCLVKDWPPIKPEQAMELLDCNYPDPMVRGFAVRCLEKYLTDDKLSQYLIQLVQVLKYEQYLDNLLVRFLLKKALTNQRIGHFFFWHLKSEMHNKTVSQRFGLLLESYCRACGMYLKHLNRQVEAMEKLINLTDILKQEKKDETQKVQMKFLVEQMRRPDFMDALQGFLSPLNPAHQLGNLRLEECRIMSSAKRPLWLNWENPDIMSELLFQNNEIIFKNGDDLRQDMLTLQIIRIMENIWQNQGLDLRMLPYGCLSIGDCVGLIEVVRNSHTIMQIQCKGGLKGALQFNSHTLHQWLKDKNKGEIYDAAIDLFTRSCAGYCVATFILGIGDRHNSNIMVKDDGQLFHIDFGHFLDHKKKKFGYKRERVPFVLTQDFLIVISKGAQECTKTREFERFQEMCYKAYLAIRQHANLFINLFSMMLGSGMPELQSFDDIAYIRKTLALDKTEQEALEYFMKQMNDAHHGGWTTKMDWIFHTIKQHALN
Sequence of PI3K alpha (P27986 whole entry partner, species assumed): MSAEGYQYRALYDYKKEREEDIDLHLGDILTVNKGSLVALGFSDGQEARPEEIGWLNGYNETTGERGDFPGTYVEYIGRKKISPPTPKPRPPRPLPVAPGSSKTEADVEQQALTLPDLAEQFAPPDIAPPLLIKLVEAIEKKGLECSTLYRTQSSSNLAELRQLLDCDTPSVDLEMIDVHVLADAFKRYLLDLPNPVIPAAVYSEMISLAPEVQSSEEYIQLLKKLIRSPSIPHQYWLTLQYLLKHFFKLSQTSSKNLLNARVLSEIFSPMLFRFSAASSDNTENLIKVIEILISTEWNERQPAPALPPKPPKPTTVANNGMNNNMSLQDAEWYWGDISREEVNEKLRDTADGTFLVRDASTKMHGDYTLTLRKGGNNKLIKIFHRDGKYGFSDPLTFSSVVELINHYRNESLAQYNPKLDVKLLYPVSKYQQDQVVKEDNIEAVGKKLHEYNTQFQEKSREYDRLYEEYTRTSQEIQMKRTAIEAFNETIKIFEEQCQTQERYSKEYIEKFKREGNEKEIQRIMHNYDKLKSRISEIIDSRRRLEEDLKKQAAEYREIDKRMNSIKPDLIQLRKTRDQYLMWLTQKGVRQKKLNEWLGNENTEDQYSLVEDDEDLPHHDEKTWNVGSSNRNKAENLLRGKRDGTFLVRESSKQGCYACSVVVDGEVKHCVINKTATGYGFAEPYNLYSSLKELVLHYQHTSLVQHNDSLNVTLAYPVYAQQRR

Consider `FC(F)c1nc2ccccc2n1-c1nc(N2CCOCC2)nc(N2CCC(Oc3ccccc3Cl)CC2)n1` [1B7, 4-(4-(4-(2-chlorophenoxy)piperidin-1-yl)-6-(2-(difluoromethyl)-1H-benzo[d]imidazol-1-yl)-1,3,5-triazin-2-yl)morpholine], for which, on PI3K alpha (setting [1]), the inhibition at 0.5 µM lay in the range of 50 to 70%. Moreover, the inhibition at 10 µM in the test on MDA-MB231 Cell line was 30 to 50%; in the test on MCF-7 Cell line, greater than 50%.

`O=C(N(c1ccccc1)c1nc(N2CCOCC2)nc(N2CCC(Oc3ccc(OC(F)(F)F)cc3)CC2)n1)C(F)(F)F` [1A9, 2,2,2-trifluoro-N-(4-morpholino-6-(4-(4-(trifluoromethoxy)phenoxy)piperidin-1-yl)-1,3,5-triazin-2-yl)-N-phenylacetamide]: the inhibition at 0.5 µM on PI3K alpha (setting [1]) and on PI3K alpha (setting [2]) was greater than 70% each time. For the same compound, the results for the inhibition at 10 µM with MDA-MB231 Cell line, in the test with MCF-7 Cell line and with PC-3 Cell line were greater than 50%, greater than 50% and 30 to 50%, respectively.

On to `Cc1cccc(OC2CCN(c3nc(N4CCOCC4)nc(-n4c(C(F)F)nc5ccccc54)n3)CC2)c1` [1B11, 4-(4-(2-(difluoromethyl)-1H-benzo[d]imidazol-1-yl)-6-(4-(m-tolyloxy)piperidin-1-yl)-1,3,5-triazin-2-yl)morpholine], for which the inhibition at 0.5 µM at PI3K alpha (setting [1]) and on PI3K alpha (setting [2]) was greater than 70% each time. For the same compound, the figures for the inhibition at 10 µM with MDA-MB231 Cell line and with PC-3 Cell line were 30 to 50% and greater than 50%, respectively.

Turning to `COc1ccc(NC2CCN(c3nc(N4CCOCC4)nc(-n4c(C(F)F)nc5ccccc54)n3)CC2)cc1` [1B24, 1-(4-(2-(difluoromethyl)-1H-benzo[d]imidazol-1-yl)-6-morpholino-1,3,5-triazin-2-yl)-N-(4-methoxyphenyl)piperidin-4-amine], the inhibition at 0.5 µM on PI3K alpha (setting [1]) and on PI3K alpha (setting [2]) was greater than 70% throughout. Besides, the inhibition at 10 µM with MDA-MB231 Cell line was 30 to 50%.

On to `COc1ccc(OC2CCN(c3nc(N4CCOCC4)nc(-n4c(C(F)F)nc5ccccc54)n3)CC2)cc1` [1B2, 4-(4-(2-(difluoromethyl)-1H-benzo[d]imidazol-1-yl)-6-(4-(4-methoxyphenoxy)piperidin-1-yl)-1,3,5-triazin-2-yl)morpholine], for which, at PI3K alpha (setting [1]), the inhibition at 0.5 µM was 50 to 70%. Moreover, the inhibition at 10 µM in the test with MDA-MB231 Cell line is greater than 50%; with MCF-7 Cell line, greater than 50%; in the test on PC-3 Cell line, 30 to 50%.

As for `O=C(N(c1ccc(F)cc1)c1nc(N2CCOCC2)nc(N2CCC(Oc3ccccc3)CC2)n1)C(F)(F)F` [1A5, 2,2,2-trifluoro-N-(4-fluorophenyl)-N-(4-morpholino-6-(4-phenoxypiperidin-1-yl)-1,3,5-triazin-2-yl)acetamide], the inhibition at 0.5 µM on PI3K alpha (setting [1]) and on PI3K alpha (setting [2]) was greater than 70% throughout. The inhibition at 10 µM was 30 to 50% with MDA-MB231 Cell line, 30 to 50% in the test with MCF-7 Cell line and greater than 50% with PC-3 Cell line.

As to `Fc1ccc(OC2CCN(c3nc(N4CCOCC4)nc(-n4c(C(F)F)nc5ccccc54)n3)CC2)cc1` [1B1, 4-(4-(2-(difluoromethyl)-1H-benzo[d]imidazol-1-yl)-6-(4-(4-fluorophenoxy)piperidin-1-yl)-1,3,5-triazin-2-yl)morpholine], the inhibition at 0.5 µM on PI3K alpha (setting [1]) and on PI3K alpha (setting [2]) was greater than 70% throughout. Moreover, the inhibition at 10 µM in the test on MDA-MB231 Cell line, in the test on MCF-7 Cell line and with PC-3 Cell line was greater than 50% each time.

In the case of `FC(F)c1nc2ccccc2n1-c1nc(N2CCOCC2)nc(N2CCC(Nc3ccc(Cl)c(Cl)c3)CC2)n1` [1B26, N-(3,4-dichlorophenyl)-1-(4-(2-(difluoromethyl)-1H-benzo[d]imidazol-1-yl)-6-morpholino-1,3,5-triazin-2-yl)piperidin-4-amine], the inhibition at 0.5 µM at PI3K alpha (setting [1]) and at PI3K alpha (setting [2]) was greater than 70% each time. In addition, the inhibition at 10 µM in the test on MDA-MB231 Cell line was greater than 50%; in the test with MCF-7 Cell line it was greater than 50%; in the test with PC-3 Cell line, 30 to 50%.

Turning to `Cc1ccccc1NC1CCN(c2nc(N3CCOCC3)nc(-n3c(C(F)F)nc4ccccc43)n2)CC1` [1B32, 1-(4-(2-(difluoromethyl)-1H-benzo[d]imidazol-1-yl)-6-morpholino-1,3,5-triazin-2-yl)-N-(o-tolyl)piperidin-4-amine], on PI3K alpha (setting [1]), the inhibition at 0.5 µM lay in the range of 50 to 70%. Besides, the inhibition at 10 µM was 30 to 50% with MDA-MB231 Cell line, greater than 50% in the test with MCF-7 Cell line and 30 to 50% in the test on PC-3 Cell line.

In the case of `Cc1ccc(NC2CCN(c3nc(N4CCOCC4)nc(-n4c(C(F)F)nc5ccccc54)n3)CC2)cc1` [1B30, 1-(4-(2-(difluoromethyl)-1H-benzo[d]imidazol-1-yl)-6-morpholino-1,3,5-triazin-2-yl)-N-(p-tolyl)piperidin-4-amine], the inhibition at 0.5 µM on PI3K alpha (setting [1]) was in the range of 50 to 70%. Besides, the inhibition at 10 µM in the test on MDA-MB231 Cell line is 30 to 50%; in the test with MCF-7 Cell line, greater than 50%; in the test on PC-3 Cell line it was 30 to 50%.

Regarding `FC(F)c1nc2ccccc2n1-c1nc(N2CCOCC2)nc(N2CCC(Nc3ccc(OC(F)(F)F)cc3)CC2)n1` [1B23, 1-(4-(2-(difluoromethyl)-1H-benzo[d]imidazol-1-yl)-6-morpholino-1,3,5-triazin-2-yl)-N-(4-(trifluoromethoxy)phenyl)piperidin-4-amine], the inhibition at 0.5 µM on PI3K alpha (setting [1]) and at PI3K alpha (setting [2]) was greater than 70% throughout. The inhibition at 10 µM with MCF-7 Cell line and in the test on PC-3 Cell line was 30 to 50% each time.

As to `FC(F)c1nc2ccccc2n1-c1nc(N2CCOCC2)nc(N2CCC(Nc3ccc(C(F)(F)F)cc3)CC2)n1` [1B22, 1-(4-(2-(difluoromethyl)-1H-benzo[d]imidazol-1-yl)-6-morpholino-1,3,5-triazin-2-yl)-N-(4-(trifluoromethyl)phenyl)piperidin-4-amine], the inhibition at 0.5 µM on PI3K alpha (setting [1]) was 50 to 70%. Besides, the inhibition at 10 µM in the test on MCF-7 Cell line and in the test on PC-3 Cell line was 30 to 50% each time.

With `Cc1ccccc1OC1CCN(c2nc(N3CCOCC3)nc(-n3c(C(F)F)nc4ccccc43)n2)CC1` [1B12, 4-(4-(2-(difluoromethyl)-1H-benzo[d]imidazol-1-yl)-6-(4-(o-tolyloxy)piperidin-1-yl)-1,3,5-triazin-2-yl)morpholine], the inhibition at 0.5 µM at PI3K alpha (setting [1]) and at PI3K alpha (setting [2]) was greater than 70% throughout. Further, the inhibition at 10 µM in the test with MDA-MB231 Cell line was 30 to 50%; in the test with MCF-7 Cell line, greater than 50%; with PC-3 Cell line, 30 to 50%.

Turning to `FC(F)c1nc2ccccc2n1-c1nc(N2CCOCC2)nc(N2CCOCC2)n1` [ZSTK474, reference compound], on PI3K alpha, the “In vitro PI3K α % of inhibition” value is listed as “++ (++ indicates greater than 70% of inhibition)”. Besides, the inhibition at 10 µM with MDA-MB231 Cell line, with MCF-7 Cell line and in the test with PC-3 Cell line was greater than 50% each time.

Consider `FC(F)c1nc2ccccc2n1-c1nc(N2CCOCC2)nc(N2CCC(Oc3cccc(Cl)c3)CC2)n1` [1B6, 4-(4-(4-(3-chlorophenoxy)piperidin-1-yl)-6-(2-(difluoromethyl)-1H-benzo[d]imidazol-1-yl)-1,3,5-triazin-2-yl)morpholine], for which the inhibition at 0.5 µM on PI3K alpha (setting [1]) was in the range of 50 to 70%. Also, the inhibition at 10 µM in the test with MCF-7 Cell line was greater than 50%; in the test on PC-3 Cell line, 30 to 50%.

With `Fc1ccccc1NC1CCN(c2nc(N3CCOCC3)nc(-n3c(C(F)F)nc4ccccc43)n2)CC1` [1B27, 1-(4-(2-(difluoromethyl)-1H-benzo[d]imidazol-1-yl)-6-morpholino-1,3,5-triazin-2-yl)-N-(2-fluorophenyl)piperidin-4-amine], at PI3K alpha (setting [1]), the inhibition at 0.5 µM is 50 to 70%. Also, the inhibition at 10 µM with MDA-MB231 Cell line was 30 to 50%; with MCF-7 Cell line, greater than 50%; in the test on PC-3 Cell line, 30 to 50%.

With `FC(F)c1nc2ccccc2n1-c1nc(N2CCOCC2)nc(N2CCC(Nc3ccc(Br)cc3)CC2)n1` [1B25, N-(4-bromophenyl)-1-(4-(2-(difluoromethyl)-1H-benzo[d]imidazol-1-yl)-6-morpholino-1,3,5-triazin-2-yl)piperidin-4-amine], the inhibition at 0.5 µM at PI3K alpha (setting [1]) and at PI3K alpha (setting [2]) was greater than 70% throughout. Moreover, the figures for the inhibition at 10 µM in the test on MCF-7 Cell line and in the test with PC-3 Cell line were greater than 50% and 30 to 50%, respectively.

For `FC(F)c1nc2ccccc2n1-c1nc(N2CCOCC2)nc(N2CCC(Oc3ccc(Cl)cc3)CC2)n1` [1B5, 4-(4-(4-(4-chlorophenoxy)piperidin-1-yl)-6-(2-(difluoromethyl)-1H-benzo[d]imidazol-1-yl)-1,3,5-triazin-2-yl)morpholine], at PI3K alpha (setting [1]), the inhibition at 0.5 µM fell in the range of 50 to 70%. Besides, the results for the inhibition at 10 µM in the test with MDA-MB231 Cell line and in the test on MCF-7 Cell line were 30 to 50% and greater than 50%, respectively.

The values above are taken from patent US9951040B2, “1,3,5 -triazine based PI3K inhibitors as anticancer agents and a process for the preparation thereof” (Council of Scientific and Industrial Research, priority 2014, dated 2018).
